The values that follow come from PMC11558097, “Enhanced Tumor‐Targeted Delivery of Arginine‐Rich Peptides via a Positive Feedback Loop Orchestrated by Piezo1/integrin β1 Signaling Axis” (Advanced Science, 2024).

Assay [1] has as its system T24 cells. The assay is described as follows: Cellular uptake pathways, flow cytometry with endocytosis inhibitors. The class given is cell-based, human. Conditions: serum-free media. As for the experimental part: (§1) Flow cytometry was used to measure the fluorescence signal. Cells were seeded in a 6‐well plate at 1.0 × 10^5 cells per well and treated with R11 peptides and a series of inhibitors for 4 h, including NaN3 (active uptake inhibitor, 20 mM), methyl‐β‐cyclodextrin (MβCD: lipid raft‐mediated endocytosis inhibitor, 5 µg mL^−1), EIPA (macropinocytosis inhibitor, […]), Chlorpromazine (CPZ: clathrin‐mediated endocytosis, 5 µg mL^−1) or Dynasore (dynamin‐dependent endocytosis inhibitor, […]) in serum‐free media at 37 °C or 4 °C for 4 h, respectively. Then, the cells were trypsinized, washed, and suspended in 1 mL PBS. The fluorescence intensity of 10 000 cells was measured using a BD LSR II flow cytometer.
In general terms: In flow cytometry, cells or beads pass a laser one at a time.

Another assay relates to Piezo1 in T24 cells. The assay is described as follows: Flow cytometry of Ca2+ signal and R11 uptake with Piezo1 agonist or inhibitor. It counts as cell-based, human. The conditions noted are these: for effect on R11 uptake efficiency and Ca2+ release: T24 cells exposed to R11, Yoda1 10 nM, GsMTx4 2.5 nM.
Assay [2] concerns BC cell lines (5637, T24, and 253J). Nature of the assay: Flow cytometry and fluorescence microscopy, uptake of R11 in BC cell lines versus control cells. It counts as cell-based, human. Conditions: BC cell lines versus Raw264.7 and SV-HUC control cells, R11 100 nM. As for the experimental part:
as §1

For the next assay, the system named is 253J cells. Nature of the assay: Antibody block assay (integrin α2β1 antibody), R11 uptake by flow cytometry. The class given is cell-based, human. Conditions: Anti-integrin α2β1 5 ug/mL for 2 h. As for the experimental part:
(§2) Antibody integrin α2β1 (ab30483) used for blocking the binding motif was purchased from ABCAM. Cells were planted in the 6‐well plates and treated with Anti‐integrin α2β1 (5 ug/mL). After incubation for 2 h, the cells were treated with R11 peptides and collected. Then, the cells were trypsinized, washed, and suspended in 1 mL PBS. The fluorescence intensity of 10 000 cells was measured using flow cytometer.

The test system of assay [3] is T24 cells. Described as above. Conditions: Anti-integrin α2β1 5 ug/mL for 2 h. It counts as cell-based, human. As for the experimental part: as §2
The test system of the next assay is bladder tumors. Nature of the assay: Mouse orthotopic BC model, IVIS imaging after intravesical instillation. It counts as in vivo. Conditions: female nude mice, orthotopic integrin β1-GFP BC model. As for the experimental part:
All the animal experiments were carried out following guidelines approved by the ethics committee of Xi'an Jiaotong University, Xi'an, China. Female nude mice aged 4–6 weeks were randomly sorted. After gaseous anesthesia, an intravenous indwelling needle lubricated with paraffin cotton was inserted into the bladder and fixed well. Then, the urine was removed, and the bladder was rinsed with PBS 3 times. Next, the abdominal skin was disinfected by iodine tincture and cut open for approximately 1 cm. GFP‐integrin β1 cells (1 × 10^6/mL) were injected into the bladder wall with an insulin needle under direct visualization. Last, the abdominal wall was stitched and bound with gauze. After 7 days, the effect of bladder tumor implantation was observed. After intravesical perfusion of R11 peptides or gold nanoparticles, tumor‐bearing mice were detected using an in vivo imaging system/IVIS (AniView) to take images. In addition, frozen sections of the tumors were stained with DAPI, and the fluorescence of each section of the tumor was analyzed by fluorescence microscopy.

Assay [4] addresses T1, integrin β1 (standard of an integrin β1 ELISA kit) (UniProt P05556 21-728).
T1 construct: integrin β1 (ITGB1), standard protein of a commercial ELISA kit; also called ITGB1; integrin β1 standards; source: bought: standard of the integrin β1 ELISA kit, Shanghai Westang Bio-Tech CO., LTD
Nature of the assay: ELISA; integrin β1 standards (0.5 µg/mL) added to the microplate wells of an integrin β1 ELISA kit, in triplicate; R11-TRITC serially diluted in PBS (0.001-10 000 nM), 2 h at 37 °C; washed; fluorescence of the bound peptide read on a microplate reader. The conditions noted are these: both partners purified. For orientation: In an ELISA, binding on a coated surface is turned into a signal by an enzyme label.

Ends that are not written are not given here.

T1 sequence (P05556 21-728): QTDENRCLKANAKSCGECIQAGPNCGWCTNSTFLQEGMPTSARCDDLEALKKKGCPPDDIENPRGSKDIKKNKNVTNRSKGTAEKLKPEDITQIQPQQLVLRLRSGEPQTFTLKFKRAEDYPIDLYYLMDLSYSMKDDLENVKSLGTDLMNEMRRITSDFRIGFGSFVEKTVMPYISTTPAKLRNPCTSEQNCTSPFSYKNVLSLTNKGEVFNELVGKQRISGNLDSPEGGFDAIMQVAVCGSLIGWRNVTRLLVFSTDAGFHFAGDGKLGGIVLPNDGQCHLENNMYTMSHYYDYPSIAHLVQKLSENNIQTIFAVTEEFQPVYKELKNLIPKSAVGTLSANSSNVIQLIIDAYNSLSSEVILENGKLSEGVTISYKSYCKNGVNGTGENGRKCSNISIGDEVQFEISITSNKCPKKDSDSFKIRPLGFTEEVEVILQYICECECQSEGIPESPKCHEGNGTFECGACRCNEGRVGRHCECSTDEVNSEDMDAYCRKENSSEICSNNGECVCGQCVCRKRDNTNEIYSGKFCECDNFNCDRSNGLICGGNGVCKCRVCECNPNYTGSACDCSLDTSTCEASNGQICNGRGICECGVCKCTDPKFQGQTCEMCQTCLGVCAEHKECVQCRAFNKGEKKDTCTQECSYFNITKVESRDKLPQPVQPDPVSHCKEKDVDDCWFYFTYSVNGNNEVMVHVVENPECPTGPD

With `N=C(N)NCCC[C@H](NC(=O)[C@H](CCCNC(=N)N)NC(=O)[C@H](CCCNC(=N)N)NC(=O)[C@H](CCCNC(=N)N)NC(=O)[C@H](CCCNC(=N)N)NC(=O)[C@H](CCCNC(=N)N)NC(=O)[C@H](CCCNC(=N)N)NC(=O)[C@H](CCCNC(=N)N)NC(=O)[C@H](CCCNC(=N)N)NC(=O)[C@H](CCCNC(=N)N)NC(=O)[C@H](CCCNC(=N)N)NC(=O)CN)C(=O)O` [R11, hendeca‐arginine peptide], the “uptake of R11 with Dynasore” value in the assay with T24 cells [1] (Dynasore 80 µmol mL^−1, 4 h) is “inhibited uptake partly”. Further, in the assay with T24 cells [1] (EIPA (macropinocytosis inhibitor) 10 µmol mL^−1, 4 h), the “uptake of R11 with EIPA” value is given as “suppressed nearly half”. The “uptake of R11 with NaN3 and 4 °C” value in the assay with T24 cells [1] (NaN3 20 mM or 4 °C, 4 h) was “blocked”. In addition, the “Ca2+ signal” value with Piezo1 in T24 cells (T24 cells, varying R11 concentrations) is recorded as “increased consistently with the concentration of R11 peptides”. Moreover, in assay [2], the “fluorescence signal of R11 (uptake)” value is listed as “stronger fluorescence signal in BC cell lines compared to control cells”. For the same molecule, the “uptake of R11 peptides after blocking integrin α2β1” value in the assay with 253J cells and in the assay on T24 cells [3] was “completely inhibited” throughout. Besides, the “identification of bladder tumors in vivo (IVIS)” value in the assay with bladder tumors was “successfully identified bladder tumors in vivo but not adjacent kidney tissues”.

`Clc1cccc(Cl)c1CSc1nnc(-c2cnccn2)s1` [Yoda1]: the “effect on R11 uptake efficiency and Ca2+ release” value in the assay on Piezo1 in T24 cells is “enhanced both the uptake efficiency and Ca^2+ release”.

Regarding GsMTx4, the “effect on R11 uptake efficiency and Ca2+ release” value with Piezo1 in T24 cells is reported as “opposite effect”.

B1: hendeca-arginine peptide (R11), GRRRRRRRRRRR-TRITC (peptide)
peptide: GRRRRRRRRRRR-{TRITC}
notes: designed cell-penetrating peptide: glycine followed by 11 arginines; also called R11 peptides; arginine-rich peptides; source: synthetic peptide, synthesized and purified by GL Biochem Ltd (Shanghai, China)
For the molecule B1, the EC50 – broadly, the midpoint of the concentration-response curve – in assay [4] came to 5.97 nM.
